Assays:
Type in all cases: in vivo
[1] = system: transgenic SOD1 G93A mice; experiment: Survival time of SOD1 G93A mice (Kaplan-Meier); conditions: in words, oral 185 mg NR and/or 30 mg PT or R per Kg per day, FIG. 1-2
From the text: (§1) 1. B6.Cg-Tg(SOD1*G93A)1Gur/J (https://www.jax.org/strain/004435)
(§2) Mice hemizygous for this SOD1-G93A (also called G93A-SOD1) transgene were viable and fertile, with transgenic expression of a G93A mutant form of human SOD1. This founder line (often referred to as G1H) was reported to have high transgene copy number. […] Motor neuron degeneration has been associated with function and/or degeneration of astrocytes, the major glial cell type of the nervous system. […] Female hemizygotes were poor breeders, and rarely produced more than one litter before the onset of disease. […] The pattern of gene expression in SOD1G93A activated microglia represented a unique ALS-specific signature. These SOD1-G93A (also called G93A-SOD1) transgenic mice were useful in studying neuromuscular disorders, including Amyotrophic Lateral Sclerosis.
(§3) Nicotinamide riboside, pterostilbene, and resveratrol were administered orally: 185 mg of nicotinamide riboside and/or 30 mg of pterostilbene or resveratrol per Kg per day were administered to the mice.

[2] = system: transgenic SOD1 G93A mice; experiment: Motor behavior and performance tests in SOD1 mice (FIG. 3-9); conditions: in words; for motor functions of SOD1 mice: FIG. 3-9, benefits only in the last weeks of the experiment
From the text: as §1, §2, §3
This score was based on the scale of Weydt et al. (Neuroreport 14: 1051-1054, 2003). […] When the animals reached a score of “4”, the access to food and water was facilitated by placing food pellets on the cage floor to all transgenic mice. Reaching a score of “5”, the animals were euthanized for ethical reasons. […] Changes over time in the different groups were monitored weekly from week 8 (P50) to week 20 (P140).
This score was based on the SHIRPA tail scale, procedure developed by Rogers et al. (Mamm. Genome 8: 711-713, 1997) in the MRC, United Kingdom. […] Changes over time in the different groups were monitored weekly.
Functions of the test included evaluating balance, grip strength and motor coordination of the subjects; especially in testing the effect of experimental drugs. For this test (Rota Rod, Harvard Apparatus, Holliston, Mass.), each animal was given three trials and the maximum period (seconds) that it could remain on a rotating axle (3.5 cm diameter; speed of rotation: 15 rpm) without falling was measured. Each mouse was given up to three attempts for an arbitrary limit of 1200 seconds and the longest period was recorded. Changes over time in the different groups were monitored weekly.
Motor function and deficit in rodent models of CNS disorders were evaluated. […] Each mouse was given up to three attempts for a maximum of 180 seconds and the longest period was recorded. Changes over time in the different groups were monitored weekly.
For this locomotor rating test, a flat rolling band (Treadmill, Harvard Apparatus) was used and set at an angle of 5°. […] Each mouse was given two trials and the maximum distance run and the number of electrical stimuli received during the test (not exceeding 3 seconds) were recorded. […]

[3] = system: transgenic SOD1 G93A mice; experiment: Electrophysiological measurements (CMAP, gastrocnemius muscle after sciatic nerve stimulation) in SOD1 mice; conditions: in words, FIG. 9
Experimental: Nicotinamide riboside, pterostilbene, and resveratrol were administered orally: 185 mg of nicotinamide riboside and/or 30 mg of pterostilbene or resveratrol per Kg per day were administered to the mice. Changes over time in evoked Compound Motor Action Potential (CMAP) in the gastrocnemius muscle after stimulation of the sciatic nerve were monitored at P50 (week 8) and […] (week 18). Recordings were made on a 2-channel electromyography system (Keypoint portable; Medtronic, Skovlunde, Denmark), with the high-frequency filter set at 5 kHz and the low-frequency filter set at 2 Hz. Electric stimulation produces artifacts; to reduce them, rectangular monophase electric pulses with a pulse width of 0.04 ms were used. For CMAP measurements the stimulation electrode was placed on the nerve at distance of 1 cm from the recording electrode placed on the gastrocnemius muscle through percutaneous puncture in the distal third of the paw, ipsilaterally to the surgical procedure, with a coaxial needle. The data of CMAP amplitude were expressed in millivolts, the data of latency were expressed in milliseconds and the data of nerve conduction velocity were expressed in meters per second (m/s). The number of animals tested per time point and group was of n=4.

Compound | survival of SOD1 mice [1] | motor functions of SOD1 mice [2] | statistical comparison with the same group without R (SOD1 vs SOD1+R; SOD1+NR vs SOD1+NR+R) ([2]; Student's t-test) | motor action potential [3]
Oc1ccc(C=Cc2cc(O)cc(O)c2)cc1 [Resveratrol, resveratrol, reference compound] | showed no benefit | showed no benefit | did not show significant differences | –
NC(=O)c1ccc[n+]([C@@H]2O[C@H](CO)[C@@H](O)[C@H]2O)c1 [NR, nicotinamide riboside] | – | improved motor functions | – | preserving motor action potential
COc1cc(/C=C/c2ccc(O)cc2)cc(OC)c1 [PT, pterostilbene] | did not improve survival | but not PT alone improved motor functions | – | –
